Where two headings read alike, the source gives them in different places.
Assays:
[1] = cited from earlier work
Wild-type LplA = target: T1, Wild-type LplA (Escherichia coli, UniProt P32099); settings: cited from earlier work
T1 construct: His6 (N); made in house; host or cells: E. coli

LAP-CFP-TM on HEK cells [2] = assay: Enzyme-catalyzed azide ligation efficiencies at the cell surface (anti-lipoic acid antibody staining); assay type: cell-based, human; settings: for lipoylation of remaining LAP sites after azide labeling, relative to condition 3 (100%): 20 min azide ligation, picolyl azide 8 with W37VLplA, 8-azidooctanoic acid with wild-type LplA; for estimated extent of azide ligation: indirectly estimated from lipoylation extent, 20 min
Procedure: A: Labeling protocol. HEK cells expressing LAP-CFP-TM were labeled with picolyl azide 8 and W37VLplA, or 8-azidooctanoic acid and wild-type LplA, using the same exact conditions as in FIGS. 6 and 9. Thereafter, cells were washed and any remaining unmodified LAP sites were labeled under forcing conditions with lipoic acid (200 μM lipoic acid, 1 mM ATP, and 20 μM wild-type LplA for 20 min). Anti-lipoic acid antibody staining was used to quantify the extent of lipoylation, and CuAAC was performed thereafter with 20 μM Alexa Fluor® 647-alkyne, 100 μM CuSO4, and 500 μM BTTAA ligand for 5 min. Cells were imaged live. B: Representative confocal images. Results obtained using picolyl azide 8 (condition 2) are shown below results with 8-azidooctanoic acid (condition 1). A negative control with neither azide added during the LplA step is shown in the bottom row (condition 3). The Alexa Fluor® 647 channel reflects CuAAC labeling. The Alexa Fluor® 568 channel reflects anti-lipoic acid antibody labeling. The CFP channel showing LAP-CFP-TM expression is overlaid on DIC. Scale bars, 10 μm. C: Quantitation of data in (B). The mean intensities in all three channels were collected for >90 single cells for each condition. To compare the extents of lipoylation, the Alexa Fluor® 568/CFP ratios were calculated (to normalize for variations in LAP expression level), averaged, and plotted on the graph. CuAAC labeling extent was quantified in a similar way. Error bars, ±s.e.m. Due to the forcing conditions of the LplA-catalyzed lipoylation, we set condition 3 to represent 100% lipoylation extent for the cell surface LAP-CFP-TM population. By comparison, lipoylation after picolyl azide 8 labeling proceeds to 19% that of condition. Lipoylation after 8-azidooctanoic acid labeling proceeds to 37% that of condition 3. Based on these, we can indirectly estimate that picolyl azide 8 ligation proceeds to 81%, and 8-azidooctanoic acid ligation proceeds to 63%, under these conditions.
Live HEK cells were incubated with rabbit anti-lipoic acid antibody (Calbiochem) in cell growth medium at 1:300 dilution for 10 min at room temperature, followed by two washes with cell growth medium. Thereafter, cells were incubated with anti-rabbit secondary antibody conjugated to Alexa Fluor® 568 (Life Technologies) in cell growth medium at 1:300 dilution for 10 min at room temperature, followed by two washes with cell growth medium.

[3] = Kinetic analysis of the CuAAC reaction (fluorogenic click with 7-ethynyl coumarin); settings: for improvement in initial CuAAC rate over carbocyclic analog: 10 μM CuSO4, no accelerating ligand, 2 vs 1, 4 vs 3; for effect of ring substituent on CuAAC reaction: 10 μM CuSO4, no ligand
Procedure: FIG. 4 is a graph illustrating in vitro analysis of CuAAC rates with chelating azides. A: A fluorogenic click reaction with 7-ethynyl coumarin was used to quantify CuAAC reaction progress. Zhou et al., JACS, 126:8862-8863 (2004). B: Various chelating azide structures tested and their CuAAC reaction yields after 10 min and 30 min. Reactions were run with 10 μM CuSO4 and no ligand (THPTA or BTTAA). C: Kinetic comparison of chelating azide 4 and its non-chelating benzyl counterpart 3 at different copper concentrations. CuAAC product was quantified using the assay in A), at 100, 40, and 10 μM CuSO4, both in the absence and presence of Cu(I) ligand THPTA. Measurements were performed in triplicate. Error bars, ±s.d.
Fluorescence was converted to coumarin triazole product quantity by comparison to standard curves, individually generated for each azide-coumarin alkyne adduct. Entries with less than 1% reaction yield (azides 1 and 3) are omitted from the plot. Measurements were performed in triplicate. Error bars, ±s.d.
General reaction conditions: 20 μM azide, 40 μM 7-ethynyl coumarin (A), and 4 mM sodium ascorbate in 100 mM sodium phosphate buffer at pH 7.4 at 25±1° C. 100 μM Tempol was added to each reaction to minimize Cu-dependent fluorescence quenching of 7-ethynyl coumarin and coumarin-triazoles. FIG. 4A.
Reactions were initiated by the addition of CuSO4: 10 μM for the azide compounds shown in FIG. 4B, and 10, 40, or 100 μM for the compounds shown in FIG. 4C. In FIG. 4C when THPTA was included, the THPTA:copper ratio was fixed at a 4:1 molar ratio. Coumarin fluorescence was recorded on a Tecan SAFIRE microplate reader at 2-min intervals for 30 min with excitation at 320 nm and emission detection at 430 nm. For each azide, the turn-on fluorescence of coumarin was correlated to % conversion to product using a calibration curve made from a mixture of known concentrations of 7-ethynyl coumarin and coumarin-triazole adduct of each azide, as follows:
Coumarin-triazole standards for azide 1, 2, 5, 6, and 7 (FIG. 4B) were generated from reacting 120 μM of each azide with 100 μM 7-ethynyl coumarin until 7-ethynyl coumarin was fully converted to the triazole adduct, using 100 μM CuSO4, 400 μM THPTA, and 4 mM sodium ascorbate. […] Such reaction mixture, now representing coumarin-triazole of a known concentration (100 μM), was then mixed with 7-ethynyl coumarin in defined ratios in the presence of 20-fold molar excess of EDTA relative to CuSO4, (which was carried over from the triazole generation reaction), to generate the calibration curve above.
Coumarin-triazole standards for azide 3 and 4 were generated from purified coumarin-triazole adducts for each azide (synthetic methods described below). Calibration curves were generated for azide 3 and 4 using coumarin-triazoles from crude reaction mixtures as described above, and found them to perform similarly to calibration curves generated from purified triazoles. FIG. 4C.

LAP-CFP-TM on HEK cells [4] = assay: Two-step cell surface protein labeling, PRIME followed by CuAAC (Alexa Fluor 647/CFP ratio); assay type: cell-based, human
Procedure: FIG. 6 is a diagram showing comparison of protein labeling signals on live cells using PRIME and CuAAC, with and without chelating azides. Two-step site-specific protein labeling was performed as in FIG. 3B above and 9 below, on HEK cells expressing LAP-tagged cyan fluorescent protein fused to the transmembrane domain of the PDGF receptor (LAP-CFP-TM). In the first step, either W37VLplA was used to target picolyl azide 8 to LAP, or wild-type LplA was used to ligate non-chelating 8-azidooctanoic acid. The efficiencies of these two ligation reactions are compared in FIG. S5. In the second step, CuAAC was performed for 5 min with Alexa Fluor® 647-alkyne and CuSO4 (10, 40, or 100 μM) in combination with either THPTA or BTTAA ligand (provided in 5-fold excess relative to the CuSO4 concentration). To quantify labeling signals, the mean Alexa Fluor® 647 and mean CFP intensities were calculated for >90 cells for each condition, ratioed to normalize for variations in LAP-CFP-TM expression level, and averaged. Error bars, ±s.e.m.
A: Two-step site-specific cell surface protein labeling protocol. In the first step, HEK cells expressing LAP-CFP-TM (TM is the transmembrane helix of the PDGF receptor) were labeled with picolyl azide 8 using W37VLplA and ATP added to the cell medium for 20 min. Alternatively, LAP-CFP-TM was labeled with non-chelating azide 8-azidooctanoic acid using wild-type LplA. In the second step, CuAAC was performed for 5 min using Alexa Fluor® 647-alkyne, various concentrations of CuSO4 (10, 40, or 100 μM), and either THPTA or BTTAA ligand added in 4-fold excess of the CuSO4. B: Representative confocal cell images for twelve different conditions (three CuSO4 concentrations, either THPTA or BTTAA ligand, and either alkyl azide or picolyl azide). For each condition, the Alexa Fluor® 647 labeling channel and the CFP channel, overlaid on DIC, are shown. Insets show the Alexa Fluor® 647 channel at higher contrast. Scale bars, 10 μm.
LplA labeling was performed with picolyl azide 8,8-azidooctanoic acid, or 10-undecynoic acid. CuAAC was performed with either alkyne, picolyl azide, or alkyl azide conjugates to Alexa Fluor® 647. A: Representative images showing labeling of LAP-CFP-TM on the surface of live HEK cells under four different conditions. CFP channels are shown, along with Alexa Fluor® 647 labeling channels normalized to the same intensity range (bottom) or not normalized (middle). LplA labeling protocol for all four conditions: 200 μM azide or alkyne substrate, 10 μM LplA (wild-type or mutant), 1 mM ATP, and 5 mM Mg(OAc)2 in cell culture medium for 20 min. […] B: Quantitation of data in (A). Average Alexa Fluor® 647/CFP intensity ratios were calculated for ˜50 single cells from each condition. […]

[5] = conjugation to LAP, previously reported

T1 sequence (P32099 2-338): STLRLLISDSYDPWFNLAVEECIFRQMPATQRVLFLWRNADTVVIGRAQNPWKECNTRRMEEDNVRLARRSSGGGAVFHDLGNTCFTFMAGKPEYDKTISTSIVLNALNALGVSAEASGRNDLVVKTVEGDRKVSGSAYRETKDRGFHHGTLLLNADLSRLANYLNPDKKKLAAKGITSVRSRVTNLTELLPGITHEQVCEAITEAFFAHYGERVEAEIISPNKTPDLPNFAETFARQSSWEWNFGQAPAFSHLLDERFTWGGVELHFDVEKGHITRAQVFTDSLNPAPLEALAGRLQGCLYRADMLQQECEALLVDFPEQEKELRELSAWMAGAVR

6,8-difluoro-7-hydroxycoumarin [Pacific Blue]
pKa of 7-OH substituent [1]: 3.7

O=C(O)CCCC[C@@H]1CCSS1 (racemic) [lipoic acid]
kcat (Wild-type LplA; lipoic acid ligation by wild-type LplA): 0.22 s⁻¹

[N-]=[N+]=NCCCCCCCC(=O)O [8-azidooctanoic acid, reference compound]
lipoylation of remaining LAP sites after azide labeling, relative to condition 3 (100%) (LAP-CFP-TM on HEK cells [2]): 37% | estimated extent of azide ligation (LAP-CFP-TM on HEK cells [2]): 63% | Km (Wild-type LplA; [5]): 127 µM | kcat (Wild-type LplA; [5]): 0.111 s⁻¹

[N-]=[N+]=NCc1ccccn1 [Azide 2, 2-azidomethylpyridine]
improvement in initial CuAAC rate over carbocyclic analog [3]: 43 fold

[N-]=[N+]=NCc1ccc(C(=O)O)cc1 [Azide 3, 4-azidomethylbenzoic acid, reference compound]
time for CuAAC reaction to completion ([3]; THPTA added, 100 and 40 uM Cu): ≤ 30 min

[N-]=[N+]=NCc1ccc(C(=O)O)cn1 [Azide 4, 6-Azidomethylnicotinic acid]
improvement in initial CuAAC rate over carbocyclic analog [3]: 14 fold | time for CuAAC reaction to completion ([3]; THPTA absent, 100 and 40 uM Cu): ≤ 30 min | time for CuAAC reaction to completion ([3]; THPTA added, all three copper concentrations (10, 40, 100 μM)): ≤ 5 min

COc1ccnc(CN=[N+]=[N-])c1 [Azide 6, 2-Azidomethyl-4-methoxypyridine]
effect of ring substituent on CuAAC reaction [3]: further accelerated the CuAAC reaction

[N-]=[N+]=NCc1cc(Cl)ccn1 [Azide 7, 2-Azidomethyl-4-chloropyridine]
effect of ring substituent on CuAAC reaction [3]: dampened the accelerating effect

[N-]=[N+]=NCc1ccc(C(=O)NCCCCC(=O)O)cn1 [Picolyl azide 8, 5-(6-(Azidomethyl)nicotinamido)pentanoic acid]
signal of picolyl azide ligation followed by fluorophore-alkyne relative to alkyne ligation followed by fluorophore-picolyl azide (LAP-CFP-TM on HEK cells [4]; 100 μM CuSO4, 500 μM THPTA, 5 min (FIG. 13)): ~2.4 fold | boost of cell signal on replacement of 8-azidooctanoic acid, corrected for enzymatic ligation efficiencies (LAP-CFP-TM on HEK cells [4]; 10, 40, 100 μM Cu, THPTA or BTTAA, corrected): ≤ 25 fold | signal relative to alkyl azide at 100 μM Cu (+THPTA), corrected value (LAP-CFP-TM on HEK cells [4]; picolyl azide at 10 μM Cu (+THPTA)): 1.6 fold | signal relative to alkyl azide at 100 μM Cu, corrected value (LAP-CFP-TM on HEK cells [4]; picolyl azide at 40 μM Cu, BTTAA): 3.9 fold | lipoylation of remaining LAP sites after azide labeling, relative to condition 3 (100%) (LAP-CFP-TM on HEK cells [2]): 19% | difference in ligation extent over 8-azidooctanoic acid ligation (LAP-CFP-TM on HEK cells [2]; 20 min labeling conditions): at most 1.5 fold | estimated extent of azide ligation (LAP-CFP-TM on HEK cells [2]): 81%
